Measurements taken from paper PMC4472782, “Antibacterial Characterization of Novel Synthetic Thiazole Compounds against Methicillin-Resistant Staphylococcus pseudintermedius” (PLoS ONE, 2015).
Converted amounts (≈) assume the structure as drawn. Where a name gives a salt, the structure may show the parent alone. Read-outs that look alike come from different tables or passages of the source.

Tests used:
[1] = tested on: methicillin-resistant Staphylococcus pseudintermedius; assay: MIC by broth microdilution against MRSP clinical isolates; format: cell-based; settings: for MIC50: Staphylococcus pseudintermedius
Procedure: (§1) Fifteen isolates of S. pseudintermedius (nine MSSP and six MRSP), identified at the Indiana Animal Disease Diagnostic Laboratory from specimens collected from dogs admitted to the small animal teaching hospital at Purdue University, were included in the study. The specimens were not collected specifically for this research study but were obtained from patients admitted to the hospital for treatment. Clinical specimens were inoculated onto 5% sheep blood agar and incubated at 35°C for 18–24 hours. Standard methods including examination of colony morphology and hemolysis and biochemical tests such as tube coagulase, Voges-Proskauer (VP) and fermentation tests for maltose, trehalose and lactose, were used in addition to matrix-assisted laser desorption ionization time of flight mass spectrometry to identify isolates. Antimicrobial susceptibility was determined by broth microdilution using the SensiTitre (Thermofisher Scientific).
(§2) Bacteria were prepared in phosphate-buffered saline (PBS) until a McFarland standard of 0.5 was achieved. The solution was subsequently diluted 1:300 in Mueller-Hinton broth (MHB) to reach a starting inoculum of 1 × 10^5 colony-forming units (CFU/mL). Bacteria were then transferred to a 96-well microtiter plate. Thiazole compounds and antibiotics were added (in triplicate) to wells in the first row of the microtiter plate and then serially diluted along the vertical axis. […] The MIC was categorized as the concentration where there was no visible growth of bacteria observed.

MRSP SP3 [2] = assay: Post-antibiotic effect against MRSP; format: cell-based, Staphylococcus pseudintermedius; settings: 4 × MIC for one hour
Procedure: A tube containing untreated bacterial cells served as a control. Afterward, the compound/antibiotic was washed out by diluting bacteria 1:1000 in MHB. Counts of CFU for all cultures were obtained after washing. Aliquots (100 μL) of bacteria were removed every hour (for 10 hours), serially diluted in PBS, and plated on TSA plates. TSA plates were incubated for 20 hours at 37°C before CFU values were determined.

[3] = tested on: methicillin-resistant Staphylococcus pseudintermedius; assay: MBC determination against MRSP clinical isolates; format: cell-based; settings: for MBC: Staphylococcus pseudintermedius, read-out: MBC50
Procedure: (§3) The MBC was determined by plating 5 μL from wells on the 96-well microtiter plate (where the MIC was determined) where no growth was observed onto Tryptic soy agar (TSA) plates. […] The MBC was categorized as the concentration where ≥99% reduction in bacterial cell count was observed.

[4] = tested on: methicillin-sensitive Staphylococcus pseudintermedius; assay: MBC determination against MSSP clinical isolates; format: cell-based; settings: nine MSSP isolates; for MBC: Staphylococcus pseudintermedius, lowest concentration that killed 50% of isolates, read-out: MBC50
Procedure: as §3

[5] = tested on: methicillin-sensitive Staphylococcus pseudintermedius; assay: MIC by broth microdilution against MSSP clinical isolates; format: cell-based; settings: for MIC50: lowest concentration inhibiting growth in 50% of isolates; for MIC: read-out: MIC Range
Procedure: as §1, §2

MRSP SP3 [6] = assay: Time-kill analysis against MRSP; format: cell-based, Staphylococcus pseudintermedius; settings: 4 × MIC; for time required to completely eliminate MRSP: MRSP SP3, 24 hour incubation at 37°C
Procedure: MRSP SP3 cells in late logarithmic growth phase were diluted to ~1 × 10^6 CFU/mL and exposed to concentrations equivalent to 4 × MIC (in triplicate) of thiazole compounds 1–6 and rifampicin in MHB. Samples (20 μL) were collected after 0, 2, 4, 6, 8, 10, 12, and 24 hours of incubation at 37°C and subsequently serially diluted in PBS. Bacteria were then transferred to TSA plates and incubated at 37°C for 20–24 hours before viable CFU/mL values were determined.

[7] = tested on: murine macrophage cell line (J774.A1); assay: In vitro cytotoxicity analysis (MTS assay); format: cell-based; settings: 10 μg/mL, J774.A1, two hours
Procedure: Compounds were assayed at concentrations of 5 μg/mL, 10 μg/mL, 20 μg/mL, and 40 μg/mL against a murine macrophage cell line (J774.A1) (ATCC TIB-67, American Type Culture Collection (ATCC), Manassas, VA, USA) to determine the potential toxic effect in vitro. Cells were cultured in Dulbeco’s modified Eagle’s medium (Sigma-Aldrich, St. Louis, MO, USA) with 10% fetal bovine serum (USA Scientific, Inc.) at 37°C with 5% CO2. Controls received DMSO alone at a concentration equal to that in drug-treated cell samples. The cells were incubated with the compounds in a 96-well plate at 37°C and 5.0% CO2 for two hours prior to addition of the assay reagent MTS 3-(4,5-dimethylthiazol-2-yl)-5-(3-carboxymethoxyphenyl)-2-(4-sulfophenyl)-2H-tetrazolium) (Promega, Madison, WI, USA). Absorbance readings were taken using a kinetic ELISA microplate reader (Molecular Devices, Sunnyvale, CA, USA). The quantity of viable cells after treatment with each compound was expressed as a percentage of the control, DMSO.
(§4) All statistical analyses were performed with GraphPad Prism 6.0 (GraphPad Software, La Jolla, CA). Data generated from cytotoxicity analysis of the thiazole compounds against J774.A1 cells and the 260 and 280 nm cell leakage analysis were analyzed using one-way ANOVA, with post hoc Tukey's multiple comparisons test (P < 0.05).

MRSP SP3 [8] = assay: Cell membrane disruption (260/280 nm cell leakage) analysis; format: cell-based, Staphylococcus pseudintermedius; settings: for absorbance (260 and 280 nm leakage) compared with untreated cells, statistical result: MRSP SP3, 30 minutes, one-way ANOVA, Tukey, P ≤ 0.05
Procedure: In order to investigate the antimicrobial effect of the thiazole compounds on the integrity of the bacterial cell membrane, the release of 260 and 280 nm absorbing components was determined spectrophotometrically. […] Untreated MRSP SP3 cells or cells treated with vancomycin (inhibits cell wall synthesis in bacterial cells) served as negative controls. For the release of 260 and 280 nm absorbing material, the bacterial suspension (control) was treated with lysostaphin (in 50 mM Tris-HCl, pH 8.00) for 30 minutes. Lysostaphin was used as a positive control due to its mode of action being the disruption of the cross-linking of the pentaglycin bridges in the cell wall of staphylococci bacteria. The absorbance of cell supernatant at 260 and 280 nm was determined using a spectrophotometer (Jenway 6305). The average OD260 and OD280 values of duplicates of each treatment option were calculated and expressed as the proportion of average OD260 (or OD280) for each treatment option compared to the average OD260 (or OD280) for the positive control (lysostaphin).
as §4

MRSP SP3 [9] = assay: Checkerboard assay of thiazole compounds with oxacillin; format: cell-based, Staphylococcus pseudintermedius; settings: for ƩFIC: combination with oxacillin, ≤ 0.5 synergistic, > 0.5 to ≤ 4.0 indifference, > 4 antagonistic; for relationship with oxacillin: checkerboard assay
Procedure: The relationship between the thiazole compounds and oxacillin was assessed via a standard checkerboard assay. Bacteria (MRSP SP3) equivalent to a McFarland standard of 0.5 were prepared in PBS. The bacteria were next diluted in MHB to achieve a starting cell density of 1 × 10^5 CFU/mL. MHB was transferred to all wells of a 96-well microtiter plate. […] Oxacillin was serially diluted along the abscissa of the microtiter plate while the thiazole compound was serially diluted along the ordinate. The plate was incubated for 22–24 hours at 37°C. The MIC of the test compound in combination with oxacillin was determined as the lowest concentration of each compound/antibiotic where no visible growth of bacteria was observed. The fractional inhibitory concentration index (ƩFIC) was calculated for each combination as described previously. A synergistic relationship was classified as an FIC index less than or equal to 0.5. […]

MRSP (SP3) = assay: Multi-step resistance selection; format: cell-based, Staphylococcus pseudintermedius; settings: for shift in the MIC over ten passages: MRSP SP3, ten serial passages; for MIC: Staphylococcus pseudintermedius
Procedure: To assess the ability of MRSP to develop resistance to the thiazole compounds, a multi-step resistance selection experiment was performed, as described elsewhere. The broth microdilution method for MIC determination against a clinical isolate of MRSP (SP3) was repeated for ten passages over a period of ten days. The initial inoculum was prepared to a McFarland standard of 0.5. The solution was subsequently diluted 1:300 in MHB to reach a starting inoculum of 1 × 10^5 CFU/mL. For each subsequent passage, the inoculum for the MIC determination was adjusted to a final density of approximately 5 × 10^5 CFU/mL using the contents of a well containing a subinhibitory concentration of the compound (where bacterial growth was observed from the previous passage). Bacteria were then transferred to a new 96-well microtiter plate.

[10] = six MRSP isolates, triplicate, read-out: MIC50

Molecule	MIC50 [1, 10]	Post-antibiotic Effect (MRSP SP3 [2])	MBC ([3]; six MRSP isolates)	MBC [4]	MIC50 ([5]; nine MSSP isolates, triplicate)	MIC ([5]; nine MSSP isolates, triplicate)	MIC Range ([1]; six MRSP isolates, triplicate)	time required to completely eliminate MRSP (MRSP SP3 [6])	toxicity to murine macrophage cells (MTS assay) [7]	absorbance (260 and 280 nm leakage) compared with untreated cells, statistical result (MRSP SP3 [8])	MBC Range ([3]; six MRSP isolates)	MBC Range [4]	ƩFIC (MRSP SP3 [9])	shift in the MIC over ten passages (MRSP (SP3))	MIC (MRSP (SP3); read-out: initial MIC)	further results
CCC[C@@H]1C[C@@H](C(=O)N[C@@H]([C@H]2O[C@H](SC)[C@H](O)[C@@H](O)[C@H]2O)[C@H](C)Cl)N(C)C1 [Clindamycin, Clindamycin hydrochloride monohydrate, reference compound]	0.48 µg/mL	2 h	30.7 µg/mL	0.48 µg/mL	0.48 µg/mL	0.24 to 61.4 µg/mL	–	–	–	–	–	–	–	–	–	Post-antibiotic Effect (MRSP SP3 [2]; listed as clindamycin): two hours
C/C(=N\NC(=N)N)c1sc(-c2ccc(-c3ccccc3)cc2)nc1C [Compound 2]	0.46 µg/mL (≈ 1.32 µM)	8 h	0.61 µg/mL (≈ 1.75 µM)	0.61 µg/mL (≈ 1.75 µM)	0.3 µg/mL (≈ 0.858 µM)	0.15 to 0.61 µg/mL (≈ 0.429 to 1.75 µM)	0.15 to 0.61 µg/mL	eight hours	toxic	no statistical difference	0.30 to 0.81 µg/mL	0.15 to 2.42 µg/mL	0.56	–	–	intracellular content (at 260 nm) released compared to cells treated with lysostaphin (MRSP SP3 [8]; 4 × MIC, 30 minutes, MRSP SP3): Less than 20%
C/C(=N\NC(=N)N)c1sc(-c2ccc(-c3ccc(F)cc3)cc2)nc1C [Compound 4]	–	>9 h	–	1.1 µg/mL (≈ 2.99 µM)	0.73 µg/mL (≈ 1.99 µM)	0.18 to 2.94 µg/mL (≈ 0.49 to 8 µM)	0.37 to 1.47 µg/mL	12 h	not toxic	–	–	0.18 to 2.94 µg/mL	0.63	two-fold increase	1.47 µg/mL (≈ 4 µM)	MIC50 [1]: 1.47 µg/mL (≈ 4 µM); MBC [3]: 1.47 µg/mL (≈ 4 µM)
C/C(=N\NC(=N)N)c1sc(-c2ccc(-c3ccc(C(F)(F)F)cc3)cc2)nc1C [Compound 5]	0.42 µg/mL (≈ 1.01 µM)	8 h	0.42 µg/mL (≈ 1.01 µM)	0.42 µg/mL (≈ 1.01 µM)	0.42 µg/mL (≈ 1.01 µM)	–	0.21 to 1.67 µg/mL	eight hours	not toxic	–	0.21 to 3.34 µg/mL	0.21 to 6.67 µg/mL	0.38	two-fold increase	1.67 µg/mL (≈ 4 µM)	MIC (MRSP (SP3); read-out: MIC after the second serial passage (stable until the seventh passage)): 3.34 µg/mL (≈ 8 µM); MIC (MRSP (SP3); read-out: MIC at the seventh passage): 6.68 µg/mL (≈ 16 µM); MIC [5]: 0.21 to 1.67 µg/mL (≈ 0.503 to 4 µM); relationship with oxacillin (MRSP SP3 [9]): synergistic
C/C(=N\NC(=N)N)c1sc(-c2ccc(-c3cccc4ccccc34)cc2)nc1C [Compound 6]	0.4 µg/mL (≈ 1 µM)	>9 h	0.8 µg/mL (≈ 2 µM)	1.06 µg/mL (≈ 2.65 µM)	0.8 µg/mL (≈ 2 µM)	0.2 to 1.6 µg/mL (≈ 0.501 to 4 µM)	0.20 to 1.60 µg/mL	within two hours	toxic	–	0.20 to 1.60 µg/mL	0.20 to 3.19 µg/mL	0.38	four-fold increase	1.6 µg/mL (≈ 4 µM)	relationship with oxacillin (MRSP SP3 [9]): synergistic
CO[C@H]1/C=C/O[C@@]2(C)Oc3c(C)c(O)c4c(O)c(c(/C=N/N5CCN(C)CC5)c(O)c4c3C2=O)NC(=O)/C(C)=C\C=C\[C@H](C)[C@H](O)[C@@H](C)[C@@H](O)[C@@H](C)[C@H](OC(C)=O)[C@@H]1C [Rifampicin, rifampicin, reference compound]	< 0.41 µg/mL	>9 h	< 0.41 µg/mL	< 0.41 µg/mL	< 0.41 µg/mL	< 0.41 µg/mL	<0.41 µg/mL	–	–	–	<0.41 µg/mL	<0.41 µg/mL	–	–	–	Post-antibiotic Effect (MRSP SP3 [2]; listed as rifampicin): > 9 h; time-kill behaviour (in words) (MRSP SP3 [6]; MRSP SP3): slow bactericidal activity against MRSP SP3 within the first eight hours of the assay before rapid bacterial re-growth
CN[C@H](CC(C)C)C(=O)N[C@H]1C(=O)N[C@@H](CC(N)=O)C(=O)N[C@H]2C(=O)N[C@H]3C(=O)N[C@H](C(=O)N[C@H](C(=O)O)c4cc(O)cc(O)c4-c4cc3ccc4O)[C@H](O)c3ccc(c(Cl)c3)Oc3cc2cc(c3O[C@@H]2O[C@H](CO)[C@@H](O)[C@H](O)[C@H]2O[C@H]2C[C@](C)(N)[C@H](O)[C@H](C)O2)Oc2ccc(cc2Cl)[C@H]1O [vancomycin, vancomycin hydrochloride, reference compound]	–	–	–	–	–	–	–	–	–	no statistical difference	–	–	–	–	–	–
lysostaphin: positive control; disrupts cross-linking of the pentaglycin bridges in the cell wall of staphylococci [reference compound]	–	–	–	–	–	–	–	–	–	significant difference	–	–	–	–	–	–
